Measurements from patent US7851592B2, “Compositions and methods for inhibiting G2 cell cycle arrest and sensitizing cells to DNA damaging agents” (CanBas Co. Ltd., priority 1999, dated 2010).
Where no end group is shown, it is not given here.

What was measured:
Jurkat cells [1] = test: Trypan blue dye exclusion analysis of Jurkat cells treated with bleomycin or colchicine with or without peptides; format: cell-based; conditions: for effect on cytotoxicity by colchicine: FIG. 3B, colchicine 5 μg/ml
Procedure: (§1) The effect of TAT-S216A and TAT-S216 on the cell death induced by bleomycin was examined. The results are shown in FIG. 3; Trypan blue dye exclusion analysis of Jurkat cells treated with bleomycin (A) or colchicine (B) with or without indicated peptides. Bars, SD Vertical axis, % viability of the cells; Bleo 5, bleomycin 5 μg/ml; Bleo 10, bleomycin 10 μg/ml; colchicine, 5 μg/ml; TAT-S216 or TAT-S216A, 10 μM of indicated peptide. […] C, survival analysis of PHA blasts treated with bleomycin and peptides. Vertical axis, % viability of the cells determined by trypan blue dye exclusion analysis; horizontal axis, time in hours. Bleo 5, bleomycin 5 μg/ml; Bleo 10, bleomycin 10 μg/ml; TAT-S216 or TAT-S216A, 10 μM of indicated peptide. D, FACS analysis of the cells treated with bleomycin and peptides. PHA-blasts were treated with bleomycin with or without peptides for 20 hr. Vertical axis, cell number; horizontal axis, DNA content indicated by propidium iodide staining.

[2] = test system: PHA blasts (mitogen-activated normal human T lymphocytes); test: Trypan blue dye exclusion survival analysis of PHA blasts treated with bleomycin and peptides; format: cell-based; conditions: FIG. 3C; bleomycin 5 and 10 μg/ml; peptide 10 μM
Procedure: Cell culture and plasmids. A human T-cell leukemia-derived cell line, Jurkat, was cultured in RPMI 1640 (Sigma) supplemented with 10% fetal calf serum. (IBL: Immuno-Biological Laboratories, Gunma, Japan) at 37° C./5% CO2. Human pancreatic epitheloid carcinoma-derived cell lines, MIA PaCa2 and PANC1, were cultured in Eagle's MEM (IWAKI, Chiba, Japan) and Dulbecco's modified Eagle's medium with 4 mM […] (Sigma) and 1.0 mM sodium pyruvate (Life Technologies, Inc., Grand Island, N.Y.), respectively, and supplemented with 10% fetal calf serum at 37° C./5% CO2. Normal human peripheral blood lymphocytes were collected by Ficoll-Paque (Amersham Pharmacia Biotech) density gradient. Two million cells/ml were cultured in RPMI 1640 supplemented with 10% fetal calf serum at 37° C./5% CO2 in the presence of 5 μg/ml PHA (Life Technologies, Inc.) for a week. Baculovirus lysates that include HA-tagged hChk1 (SEQ ID NO:3) or c-myc-tagged Chk2/HuCds1 (SEQ ID NO:4) and plasmid for GST-Cdc25C (amino, acid 200-256) were made as described in Matsuoka (1998) Science 282:1893-1897, and provided by Dr. Makoto Nakanishi (Department of Biochemistry, Nagoya City University.
The effect of TAT-S216A and TAT-S216 on the cell death induced by bleomycin was examined. […] Vertical axis, % viability of the cells determined by trypan blue dye exclusion analysis; horizontal axis, time in hours. […]

[3] = test system: PHA blasts (mitogen-activated normal human T lymphocytes); test: FACS analysis of PHA blasts treated with bleomycin and peptides; format: cell-based; conditions: FIG. 3D; for cell cycle pattern of PHA blasts, peptide in addition to bleomycin: 20 hr
Procedure: (§2) Cell-cycle analysis. The cell cycle status of the cells treated with peptides and/or bleomycin or colchicine was analyzed by FACS, as described by Kawabe (1997) Nature 385:454-458. In brief, two million Jurkat cells were re-suspended and incubated in 300 μl Krishan's solution (0.1% Sodium citrate, 50 μg/ml PI, 20 μg/ml RNase A and 0.5% NP-40; see supra) for 1 hr at 4° C. and analyzed by FACScan™ (Beckton Dickinson, Mountain View, Calif.) with the program CELLQuest™ (Beckton Dickinson).
as §1
In order to confirm the specificity of the effect of these peptides on cancer cells in which the G1 checkpoint is abrogated; the effect of these peptides on normal human cells was investigated. Mitogen-activated normal human T lymphocytes (PHA blasts) were prepared by stimulating peripheral blood mononuclear cells obtained from a healthy donor with PHA for 1 week. These cells were treated with bleomycin (5 and 10 μg/ml) in the presence or absence of either TAT-S216A or TAT-S216.

Jurkat cells [4] = test: Cell-cycle analysis by FACS, DNA damage-induced G2 arrest; format: cell-based, human; conditions: bleomycin 10 μg/ml
Procedure: as §2
(§3) The cell cycle status of the cells treated with TAT-S216A or TAT-S216 upon the DNA damage-induced G2 arrest was analyzed by FACS analysis. Histone H1 kinase activities of theses cells were simultaneously monitored. […] Results are shown in FIG. 2: abrogation of DNA damage-induced G2 arrest by TAT-S216A and TAT-S216 peptides. FIG. 2A, FACS analysis of Jurkat cells treated with bleomycin and peptides. Cells were treated with bleomycin (10 μg/ml) with or without peptides (10 μM) for 20 hr. B, histone H1 kinase analysis. Cell lysates were prepared from the cells treated with the indicated reagent for 6 hr. Concentrations used were: hydroxyurea (HU), 100 μg/ml; bleomycin (Bleo), 10 μg/ml; colchicine, 5 μg/ml; TAT-S216A and TAT-S216, 10 μM. C, FACS analysis of colchicine -and peptide-treated cells. Jurkat cells were treated with colchicine (5 μg/ml) with or without peptide (10 μM) for 20 hr.

[5] = test system: histone H1 kinase activity; test: Histone H1 kinase assay on lysates of treated Jurkat cells; format: cell-based, human; conditions: FIG. 2B, 6 hr
Procedure: Histone H1 kinase assay. Ten million Jurkat cells were treated with hydroxyurea (100 μg/ml), bleomycin (10 μg/ml), or colchicine (5 μg/ml) with or without addition of TAT-S216A, TAT-S216 or TAT-Control (10 μM) for 6 hr. The cells were washed in cold PBS and lysed at 4° C. in 1 ml of buffer A (50 mM Tris pH 8, 2 mM DTT, 5 mM EDTA, 100 mM NaCl, 0.5% NP40, 20 mM Na3V04, 50 mM NaF, 4 μM Okadaic acid, 5 μg/ml aprotinin, 5 μg/ml pepstatin A and 5 μg/ml leupeptin.). Twenty microliter of p13^suc1 agarose beads (Upstate Biotechnology., Saranac, N.Y.) were added to the cleared lysates, incubated for 4 hr at 4° C., and washed five times with buffer A without 5 mM EDTA, 20 mM Na3V04, 50 mM NaF, 4 μM Okadaic acid. Histone HI kinase activity on the beads were analyzed by using Cdc2 kinase assay kit (Upstate Biotechnology) with [γ-^32P] ATP, followed by 12% SDS-PAGE electrophoresis, and autoradiographed to detect the phosphorylated Histone H1.
as §3

hChk1 = biological target: T1, hChk1 (Homo sapiens, UniProt O14757, I471V); test: In vitro immune complex kinase assay, Cdc25C phosphorylation by purified hChk1; format: biochemical; conditions: FIG. 1B; peptide 10 μM; substrate 1 μM
T1 construct: made in house; host or cells: insect cells, recombinant baculovirus (lysates provided by Dr. Makoto Nakanishi)
T1 sequence (O14757 1-476 I471V): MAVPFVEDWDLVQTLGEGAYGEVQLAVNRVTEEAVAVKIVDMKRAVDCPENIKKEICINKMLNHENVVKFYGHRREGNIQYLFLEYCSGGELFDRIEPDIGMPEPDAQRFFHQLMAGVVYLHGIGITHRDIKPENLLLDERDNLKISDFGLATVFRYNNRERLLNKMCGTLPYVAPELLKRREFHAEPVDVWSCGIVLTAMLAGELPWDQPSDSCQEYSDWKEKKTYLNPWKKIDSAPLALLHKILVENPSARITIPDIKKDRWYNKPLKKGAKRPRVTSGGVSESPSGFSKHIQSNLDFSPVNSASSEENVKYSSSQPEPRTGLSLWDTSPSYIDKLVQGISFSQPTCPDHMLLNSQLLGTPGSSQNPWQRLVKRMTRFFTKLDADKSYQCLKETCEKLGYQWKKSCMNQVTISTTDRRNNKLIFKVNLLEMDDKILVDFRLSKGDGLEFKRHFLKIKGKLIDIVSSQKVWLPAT
Procedure: Kinase assay. HA-tagged hChk1 (SEQ ID NO:3) and c-myc-tagged Chk2/HuCds1 (SEQ ID NO:4) expressed in insect cells using recombinant baculovirus (see, e.g., Kaneko (1999) Oncogene 18:3673-3681) were purified by immunoprecipitation using anti-HA or anti-c-myc antibodies and protein G-Sepharose. Immune complex kinase reaction was done in PBS with 1 mM DTT, 1 mM MgCl2 and 100 μCi of [γ-^32P] ATP (Amersham; 6000 Ci/mmol) plus purified 1 μM GST-Cdc25C or 10 μM Cdc25C peptide (amino acid 211 to 221 of Cdc25C (SEQ ID NO: 2); […], Sawady Technology Co.) substrates at 30° C. for 15 min in the presence of 10 μM TAT-S216, TAT-S216A or TAT-Control. After the reaction, samples were separated in 12% or 15% SDS-PAGE and autoradiographed to detect GST-Cdc25C or peptide phosphorylation.
The results are shown in FIG. 1: TAT-S216A and TAT-S216 peptides inhibit hChk1 and Chk2/HuCds1 kinase activities in vitro. FIG. 1A. sequences of the peptides. FIG. 1B, in vitro phosphorylation analysis using GST-Cdc25C and purified hChk1. GST-Cdc25C (amino acid 200-256) that was produced in E. coli (DH5α) was used as substrate (1 μM). Immune complex kinase reaction was done in the presence of TAT-S216A (10 μM) or TAT-S216 (10 μM). FIG. 1C, in vitro phosphorylation analysis of hChk1 and Chk2/HuCds1 using synthesized Cdc25C peptide corresponding amino acid 211-221 of Cdc25C ([…] (SEQ ID NO: 2)) as a substrate (10 μM).

Jurkat cells [6] = test: FACS DNA content of bleomycin-treated Jurkat cells with oligopeptides (Example 3); format: cell-based, human; conditions: FIG. 6, bleomycin 20 μg/ml, 0, 6, 12, 24 hours
Procedure: The cells with the deficient cell cycle G1 checkpoint (such as a human leukemia-derived cell line Jurkat) were treated with a DNA damaging treatment. As the DNA damaging treatment, the cells were treated with bleomycin or other anti-cancer drugs. These drugs were added to the cell culture medium. Alternatively, the cells were irradiated with gamma irradiation. Peptides were added to these cells and the amount of DNA was determined some 10 to 48 hours after the DNA damage. The harvested cells were re-suspended with the solution that includes propidium iodide, RNase and NP-40 and analyzed by flow cytometer. […]
Jurkat cells were cultured in 10% fetal calf serum with a medium (RPMI 1640) at 37° C./5% CO2 with: bleomycin at 20 μg/ml; bleomycin at 20 μg/ml and the peptide “4aa” (amino acid sequence is GGSPSM (SEQ ID NO: 1931)); bleomycin at 20 μg/ml and the peptide AAA (Table 1); bleomycin at 20 μg/ml and the peptide YNP (Table 1). The amount of DNA was analyzed at 0, 6, 12, 24 hours after the addition of ten microgram of bleomycin with or without the oligopeptides “4aa,” “YNP” and “AAA.” The DNA quantity was analyzed by a flow cytometer (FACS) after the addition of a solution comprising propidium iodide, RNase and NP-40. […]

Jurkat cells [7] = test: FACS DNA content of colchicine-treated Jurkat cells with oligopeptides (Example 3); format: cell-based, human; conditions: FIG. 7; colchicine 2.5 μg/ml
Procedure: Other screening methods can be used to identify selective inhibitors of the G2 cell cycle checkpoint. For, the cells are simultaneously treated with an oligopeptide “candidate phosphorylation substrate” and an M phase checkpoint activator, such as colchicine or nocodazol. The DNA content of the cells are analyzed some 10 to 48 hours after the treatment as described above.
In another experiment, an M phase checkpoint activator, colchicine, was used instead of bleomycin: colchicine at 2.5 μg/ml; colchicine at 2.5 μg/ml and the peptide “4aa”; colchicine at 2.5 μg/ml and the peptide AAA (Table 1); colchicine at 2.5 μg/ml and the peptide YNP (Table 1), and no treatment.

Substance: YGRKKRRQRRRLYRSPAMPENL [TAT-S216A]
- effect on cytotoxicity by colchicine (Jurkat cells [1]; peptide 10 μM): did not affect the cytotoxicity by colchicine
- effect on cytotoxicity of bleomycin to normal cells (PHA blasts) [2]: did not increase the cytotoxicity of bleomycin to normal cells
- cell cycle pattern of PHA blasts, peptide in addition to bleomycin [3]: no further alteration of cell cycle pattern was observed

Substance: Bleomycin [reference compound]
- cell cycle arrest of Jurkat cells by bleomycin alone (Jurkat cells [4]): arrested exclusively at G2
- histone H1 kinase activity on treatment with drug alone ([5]; bleomycin 10 μg/ml or hydroxyurea 100 μg/ml): decreased
- Jurkat cells killed, bleomycin alone (Jurkat cells [1]; FIG. 3A, bleomycin at 5 or μ10 g/ml): 27-30%
- cell cycle arrest of PHA blasts by bleomycin alone ([3]; bleomycin 5 μg/ml): arrested at G1 and S phase but not G2

Substance: TAT-Control: control peptide: TAT domain with Cdc25C portion partially deleted and substituted with glycine (GGRSPAMPE) (YGRKKRRQRRRGGRSPAMPE)
- phosphorylation of GST-Cdc25C (amino acid 200-256) by baculovirus-produced hChk1 (hChk1): did not inhibit
- G2 arrest in response to bleomycin (Jurkat cells [4]; FIG. 2A, peptide 10 μM, 20 hr): arrested at G2 similarly to the cells treated with bleomycin alone
- histone H1 kinase activity on bleomycin treatment in the presence of peptide ([5]; bleomycin 10 μg/ml, peptide 10 μM): did not affect
- effect on bleomycin-induced cell death / viability of bleomycin-treated Jurkat cells (Jurkat cells [1]; FIG. 3A, bleomycin 5 or 10 μg/ml, peptide 10 μM): did not affect the viability

Substance: Y G G P G G G G N (YGGPGGGGN) [YPN]
- G2 checkpoint / accumulation of bleomycin-treated cells at G2/M (Jurkat cells [6]): specifically abrogated the cell cycle at the G2 checkpoint
- G2 checkpoint / accumulation of bleomycin-treated cells at G2/M (Jurkat cells [6]; listed as YNP): abrogated the G2 checkpoint
- accumulation of colchicine-treated cells at the G2/M phase (Jurkat cells [7]): None of the above tested oligopeptides (Table 1), including, YPN, affected the accumulation

Substance: YGRKKRRQRRRLYRSPSMPENL [TAT-S216]
- effect on cytotoxicity by colchicine (Jurkat cells [1]; peptide 10 μM): did not affect the cytotoxicity by colchicine
- effect on cytotoxicity of bleomycin to normal cells (PHA blasts) [2]: did not increase the cytotoxicity of bleomycin to normal cells
- cell cycle pattern of PHA blasts, peptide in addition to bleomycin [3]: no further alteration of cell cycle pattern was observed
